Measured values from patent US20070172439A1, “Method of chemiluminescence-utilizing makeup and beautification, luminant for skin irradiation beautification and makeup/beautification equipment” (priority 2004, published 2007).

Assays:
mouse melanoma(B16 cell) [1] = assay: B16 cell proliferation rate (Abs 260 nm); format: cell-based; conditions: VC 1 mM addition (positive control); control = 100
Excerpt: (§1) • Cell: mouse melanoma(B16 cell) • Chemical luminescentbody: Normal type • Blue fluorescent light, orange fluorescent light, red fluorescent light, green fluorescent light, and yellow fluorescent light • High intensity type • Orange fluorescent light, red fluorescent light, and green fluorescent light (Produced by OmniGlow Japan Co., Ltd.) Assay: • 1. Seeded B16 cell to 24 well plate with […], MEM·10% S(+)·glucosamine culture medium. n=8 • 2. After culturing 5 days, it was transferred to MEM·10% S(+)·theophyline culture medium. • 3. Exposed to fluorescent light by placing the chemical luminescent body in contact with the plate for 4 hr. in the case of normal type and for 30 min. in the case of high intensity type. The control was under no exposure to fluorescent light and the positive control was in the 1 mMVC (Ascorbic acid) addition system. • 4. The cell was recovered three days after the start of exposure, dissolved into 0.1% DS normal saline solution, and then the optical density was measured at 260 nm (index of the amount of cell) and at 475 nm (index of the amount of melanin), and then the cell proliferation rate and the melanin synthesis rate per unit cell was calculated. • The B16 cell proliferation rate is shown in Table 4 and FIG. 7, and the melanin synthesis rate per unit cell is shown in Table 5 and FIG. 8. […]

mouse melanoma(B16 cell) [2] = assay: Melanin synthesis rate per unit cell (Abs 475/260 nm); format: cell-based; conditions: VC 1 mM addition (positive control), control = 100
Excerpt: as §1

Fibroblast(NHF) [3] = assay: Collagen synthesis rate, PIP kit per MTT (Example 5); format: cell-based, human; conditions: PMG 100 mM (positive control); per unit cell; control = 100
Description: (§2) • Cell:Fibroblast(NHF) • Chemical luminescence body (produced by OmniGlow Japan Co., Ltd.) • Normal type red (red fluorescent light) • High intensity orange (orange fluorescent light) • Collagen measurement kit: The amount of propeptide at the end of I type collagen C (PIP) is measured by Takara PIP kit. Assay: • (1)NHF is seeded at 2.0×10^4 to 24 well plate with DMEM·10% S(+). • (2) After confluent state is observed by culturing 5 days, it was transferred to non-color and non-blood-serum DMEM. • (3) Fluorescent light is allowed to irradiate (30 min.) by placing the chemical luminescent body in direct contact with 24 well plate. 100 mM PMG(phosphoric acid-L-magnesium ascorbate) addition system was prepared as the positive control. • (4) After 24 hours from the start of irradiation, the upper layer of the medium is recovered. • The amount of propeptide at the end of I type collagen C (PIP) is measured by Tatara PIP kit and then the calorimetric determination of cell proliferation is made by using MTT assay at observation wavelength of 540 nm and at reference wavelength of 655 nm. The cell proliferation rate is calculated by the formula below by setting the control of non-treated group as 100%. […]

Fibroblast(NHF) [4] = assay: Fibroblast proliferation, MTT assay (Example 5); format: cell-based, human; conditions: PMG 100 mM (positive control); 24 hours
Description: as §2

[5] = system: Normal human skin fibroblast (NHF); assay: Cell proliferation, MTT assay (Example 1); format: cell-based; conditions: fluorescence 4 hrs, 100 mM PMG as positive control, vs untreated control
Description: The test was performed in the procedure described below: • 1. Cell: Normal human skin fibroblast (NHF) • 2. Chemical fluorescent body: CYALUME Light shape blue, orange and red Seller: OmniGlow Japan Co., Ltd. • 3. Assay: • (1) Seeded NHF to 24 well plate with 2.0×10^4 cells/well, DMEM·10% S(+) • (2) After confluent state is observed by culturing 5 days, it was transferred to non-color and non-blood-serum DMEM. • (3) Exposed to fluorescence (4 hrs.). 100 mM PMG additive system was used as the positive control. • (4) Observed the appearance of the cell (×40) • (5) The quantitative measurement of cell proliferation was made by using MTT assay and by means of colorimetric test with wavelengths of 540 nm for measurement and 655 nm for control. The cell proliferation rate was calculated by using the formula described below, setting the untreated control as 100%. • 4. Calculation formula Cell proliferation rate=([Sample addition OD(540 nm)]−[Sample addition OD(655 nm)])/([Control OD(540 nm)]−[Control OD(655 nm)])×100

Row | Compound | B16 cell proliferation rate (%) (mouse melanoma(B16 cell) [1]) | Melanin synthesis rate (%) (mouse melanoma(B16 cell) [2]) | Collagen synthesis rate (%) (Fibroblast(NHF) [3]) | Fibroblast proliferation rate (%) (Fibroblast(NHF) [4]) | cell proliferation [5]
1 | O=C1O[C@H]([C@@H](O)CO)C(O)=C1O [VC, Ascorbic acid] | 21.42 | 65.28 |  |  | 
2 | phosphoric acid-L-magnesium ascorbate [PMG] |  |  | 127.6 | 138.2 | significantly promoted
